In US5348941A, “Stabilizers for fibroblast growth factors” (Merck & Co., Inc., priority 1992, dated 1994):

Tests used:
[1] = biological target: T1, aFGF (Homo sapiens, UniProt P05230); test: Thermal denaturation (Tm) of aFGF by fluorescence spectroscopy; format: biochemical; conditions: for molar excess of ligand to aFGF required for 50% stabilization: FIG. 9; for Tm maximum of aFGF, fluorescence: saturating ligand, 100 μg/ml aFGF
T1 construct: The recombinant derived, 140 amino add form is the preferred form of aFGF; N-terminal methionine (MetHaFGF); made in house; host or cells: microbial cells (preferred embodiment)
Procedure: Fluorescence spectra are obtained with a Spex Fluorolog-2 spectrofiuorometer using a 1 mm pathlength cuvette. Band passes from 1-2 nm are employed with sample absorptivities maintained below 0.1 at 280 nm. The temperature is controlled either manually or automatically as described above. Reproducibility of thermal denaturation temperatures (Tm) is ± 2° C.
To more directly ascertain the effect of heparin on aFGF stability, the temperature-induced denaturation of aFGF as a function of heparin concentration was monitored by fluorescence spectroscopy. Fluorescence spectra were obtained with a Spex Fluorolog-2 spectrofiuorometer using a 1 mm pathlength cuvette. Band passes from 1-2 nm were employed with sample absorptivities maintained below 0.1 at 280 nm. The temperature was controlled either manually or automatically as described above. Reproducibility of thermal denaturation temperatures (Tm) was ±2° C. […] Experiments were carried out at 100 μg/ml protein (6.3 μM) in a PBS buffer at pH 7.2. Curve drawn through data points for clarity only.
Studies of the stabilization of aFGF by heparin are difficult to interpret because of the inherent heterogeneity of heparin preparations, Lane and Lindahl, Eds. Heparin, Chemical and Biological Properties, Clinical Applications, Edward Arnold, London (1989); Jackson, et al., Physiol. Rev. 71: 481-539 (1991). In order to better understand the polyanionic stabilization of aFGF, a series of well-defined fragments of heparin were examined for their ability to stabilize aFGF against thermal denaturation. These enzymatically prepared and purified fragments varied in size from a disaccharide to a decasaccharide. Each fragment was incubated with aFGF at a 1:1 weight ratio in a PBS buffer. The sample was then stressed by temperature and structural changes in aFGF were monitored by both circular dichroism and fluorescence spectroscopy. […] All samples contained 100 μg/ml aFGF (6.3 μM)in a PBS buffer (pH 7.2) with 100 μg/ml of each heparin fragment.
Since these fragments of heparin have a well-defined molecular weight, the molar ratio of aFGF to ligand during these thermal denaturation experiments can be calculated. The Tm of aFGF as a function of the molar concentration of the hexasaccharide was measured by fluorescence spectroscopy. Fluorescence spectra were obtained with a Spex Fluorolog-2 spectrofiuorometer using a 1mm pathlength cuvette. Band passes from 1-2 nm were employed with sample absorptivities maintained below 0.1 at 280 nm. The temperature was controlled either manually or automatically as described above. Reproducibility of thermal denaturation temperatures (Tm) was ±2° C.
Analogous to the heparin experiments illustrated in Example 1 (FIG. 3), aFGF thermal stability was monitored by fluorescence spectroscopy as a function of concentration for several other of the polyanions. […] All samples contained 100 μg/ml of aFGF (6.3 μM) in a PBS buffer at pH 7.2.

[2] = tested on: BALB/c 3T3 A31 fibroblasts; test: Fibroblast mitogenic assay ([3H]-thymidine incorporation into DNA); format: cell-based; design: Bioactivity (mitogenic activity of aFGF in the presence of ligand): unit not given here; conditions: for Bioactivity (mitogenic activity of aFGF in the presence of ligand): complete absence of heparin, < = response did not plateau, * = cell death observed; for mitogenic activity of aFGF: absence of heparin
Procedure: Biological activity of the formulation of the instant invention is determined by a modification of the fibroblast mitogenic assay as described by Linemeyer et al. in European Patent Application, Publication No. 259,953. BALB/c 3T3 A31 fibroblasts (American Type Culture Collection) are plated at about 3×10^5 cells per 32 cm^2 wells in culture media containing about 10% heat-inactivated calf serum and incubated in about 7% CO2 (pH 7.35±0.05). The cells become fully quiescent by replacing the media with serum free media at about 6, about 24 hours and about 48 hours later. At about 53 hours after plating samples of the various formulations are added and about 0.12 μg of dexamethasone are added. At about 65 hours each well is supplemented with about 0.4 μCi of [methyl-^3 H]-thymidine (20 Ci/mmole, Dupont) and 0.6 μg of unlabeled thymidine (Sigma), and at 80 hours the cells are processed for determination of radiolabel incorporation into DNA. Each dose-response point is the average of at least quadruplicate determinations. Other cell types such vascular endothelial cells and corneal endothelial cells can be employed to determine in vitro mitogenicity. The procedures are described in detail by Thomas et al., Proc. Natl. Acad. Sci. USA 82:6409-6431 (1985).
^(d) Mitogenic activity of aFGF was measured in the presence of ligan
indicated in the complete absence of heparin.
*indicates cell death observed during assay.
Biological activity of the formulation of the instant invention was determined by a modification of the fibroblast mitogenic assay as described by Linemeyer et al. in European Patent Application, Publication No. 259,953. BALB/c 3T3 A31 fibroblasts (American Type Culture Collection) were plated at 3×10^5 cells per 32 cm^2 well in culture media containing about 10% heat-inactivated calf serum and incubated in 7% CO2 (pH 7.35±0.05). The cells become fully quiescent by replacing the media with serum free media at 6, 24 hours and 48 hours later. At 53 hours after plating samples of the various formulations were added and 0.12 μg of dexamethasone was added, at 65 hours each well was supplemented with 0.4 μCi of [methyl-^3 H]-thymidine (20 Ci/mmole, Dupont) and 0.6 μg of unlabeled thymidine (Sigma), and at 80 hours the cells were processed for determination of radiolabel incorporation into DNA. Each dose-response point is the average of at least quadruplicate determinations. Other cell types such vascular endothelial cells and corneal endothelial cells can be employed to determine in vitro mitogenidty. The procedures are described in detail by Thomas et al., Proc. Natl. Acad. Sci. USA 82:6409-6431 (1985).

T1 sequence (P05230 16-155 limits assumed): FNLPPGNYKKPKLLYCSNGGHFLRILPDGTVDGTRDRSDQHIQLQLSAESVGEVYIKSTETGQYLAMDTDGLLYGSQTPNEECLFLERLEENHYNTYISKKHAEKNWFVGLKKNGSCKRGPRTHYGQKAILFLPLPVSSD

| thermal melting temperature (Tm) of aFGF, fluorescence ([1]; 1/3X ligand by weight, PBS pH 7.2) | thermal melting temperature (Tm) of aFGF, fluorescence ([1]; 3X ligand by weight, PBS pH 7.2) | concentration of heparin necessary to obtain one-half the Tm maximum ([1]; fluorescence, PBS pH 7.2) | Compound | molar excess of ligand to aFGF required for 50% stabilization ([1]; fluorescence) | Tm maximum of aFGF, fluorescence ([1]; PBS pH 7.2) | Bioactivity (mitogenic activity of aFGF in the presence of ligand) [2] | mitogenic activity of aFGF [2] |
| --- | --- | --- | --- | --- | --- | --- | --- |
|  |  |  | O=S(=O)(O)OC1C(OS(=O)(=O)O)C(OS(=O)(=O)O)C(OS(=O)(=O)O)C(OS(=O)(=O)O)C1OS(=O)(=O)O (stereo not drawn) [Inositol hexasulfate, inositol hexasulfate] | ~3.5 | 53 °C | 2.3 |  |
| 59 °C | 61 °C | 0.1 X (by weight) | heparin [reference compound] |  | 61 °C | 4.2 |  |
|  |  |  | O=P(O)(O)OP(=O)(O)OP(=O)(O)OP(=O)(O)O [Tetrapolyphosphate] | approximately 6 | 50 °C | < 0.25 | did not show any appreciable mitogenic activity |
|  |  |  | low molecular weight heparin [Low MW heparin, reference compound] |  |  | 4.0 |  |
|  |  |  | dextran sulfate |  |  | 5.0 |  |
|  |  |  | O=P(O)(O)O[C@H]1[C@H](OP(=O)(O)O)[C@@H](OP(=O)(O)O)[C@H](OP(=O)(O)O)[C@@H](OP(=O)(O)O)[C@H]1OP(=O)(O)O [Inositol hexaphosphate, inositol hexaphosphate] | ~2 | 60 °C | < 0.6 | did not show any appreciable mitogenic activity |
|  |  |  | sulfated β-cyclodextrin | ~1.5 | 56 °C | 3.7 |  |
